Earlier results on one compound are cited in patent US6818203B2, “Use of perfluoroalkyl-containing metal complexes as contrast media in MR-imaging for visualization of plaque, tumors and necroses” (Schering Aktiengesellschaft, priority 2000, dated 2004).

The structures appear in SMILES notation.

For this series the following is noted: in vivo; cited from earlier work.

On to `O=S(=O)([O-])c1ccc(-c2c3nc(c(-c4ccc(S(=O)(=O)[O-])cc4)c4ccc([nH]4)c(-c4ccc(S(=O)(=O)[O-])cc4)c4nc(c(-c5ccc(S(=O)(=O)[O-])cc5)c5ccc2[nH]5)C=C4)C=C3)cc1.[Mn+4]` [Mn-TPPS, manganese-5,10,15,20-tetrakis(4-sulfonatophenyl)-porphyrin], for which the LD50 result was “approximately 0.5 mmol/kg” and the “dose at which an action starts” value is listed as 0.2 mmol/kg.
